Patent EP1345618B1, “CHLORZOXAZONE FOR THE TREATMENT OF PSORIASIS” (Switch Biotech Aktiengesellschaft, priority 2000, dated 2002)
“Also recorded” adds a separate entry of the source. Like-named read-outs stand apart in the source and are kept apart here.

Key:
Format in all cases: cell-based
HaCaT-Keratinozyten [1] = assay: Patch-clamp recording of the membrane potential (Vm) of HaCaT keratinocytes; conditions: for Depolarisierung auf ein Plateau während der Behandlung mit ATP: other K+ channel blockers, compared with ChTx and Clotrimazol
Method: Um einen Ionenkanal zu identifizieren, der wesentlich bei der Signaltransduktion wundheilungsspezifischer Signale beteiligt ist, wurden HaCaT-Zellen elektrophysiologisch untersucht. Die Anzucht der HaCaT-Keratinozyten erfolgte in DEM mit 10% FRS (Gibco BRL), den Antibiotika (Penicillin/Streptomycin 100 U/ml) zugesetzt worden war. Die Ca^2+-Endkonzentration betrug 1,8 mM. Die Zellen wurden inkubiert bis eine konfluente Zellkultur entstanden war; anschließend wurde das Kulturmedium durch "Standard Bath Solution" (SBS; 130 mM NaCl, 3 mM KCl; 2 mM CaCl2; 2 mM MgCl2; 25 mM HEPES/NaHEPES; 10 mM D-Glukose; pH 7,4) ersetzt und die Schalen an einem inversen Mikroskop (Axiovert, Zeiss) untersucht. Die "Patch"-Pipetten wurden aus Borosilikatröhrchen an einer horizontalen Ausziehvorrichtung (DMZ, Zeitz) nach dem zweistufigen Ausziehverfahren hergestellt. Die Pipetten wurden anschließend mit einer Lösung, die 135 mM Kaliumglukonat, 10 mM KCl, 1,6 mM Na2HPO4, 0,73 mM CaCl2, 1,03 mM MgCl2, 1 mM EGTA, 14 mM HEPES/NaHEPES und […] Nystatin; pH 7,2 enthielt, gefüllt (Ca^2+-Aktivität in der Lösung= 10^-7 M). Der Widerstand dieser "Patch"-Pipetten betrug […] im Bad. Nachdem eine Versiegelung im GΩ-Bereich hergestellt wurde (typischerweise 1,5-2 GΩ) wurde der Verstärker auf Strom-Klemm Modus umgestellt. […] Die elektrophysiologischen Signale wurden mittels eines Axopatch 200 Verstärkers in Verbindung mit einem TL-1 Labmaster Interface und AXOTAPE Software (Axon Instruments) aufgenommen, verstärkt und digitalisiert. Die statistische Auswertung (ein-Weg ANOVA mit Bonferri post-test Vergleich) wurde mit Graphpad prism 2.0 durchgeführt.
Bei Experimenten, bei denen die intrazelluläre Ca^2+-Konzentration durch Blitzphotolyse von "caged IP3" (Calbiochem) erhöht wurde, wurde das "Patch-Clamp Recording" in der Ganzzell-Konfiguration durchgeführt, wobei eine Pipettenlösung enthaltend 120 mM Kaliumglukonat, 20 mM KCl, 1 mM MgCl2, 10 mM HEPES/NaHEPES, 2 mM Na2ATP, 0,3 mM NaGTP (pH 7,2) und 10-100 µM "caged IP3" verwendet wurde. Nach 5-7 min Ganzzell-Aufzeichnung wurde IP3 durch einen UV-Lichtblitz freigesetzt, der durch eine Xenon-Bogen-Lampe (75 W; Anregungsfilter: 330 ± 40 nm), die mit dem Epifluoreszenzport des Mikroskops verbunden war, generiert wurde. Der UV-Lichtstrahl wurde durch das 40-fach Phasenkontrastobjektiv auf die Keratinozyten fokussiert. Die Dauer des Blitzes (1 s) wurde durch einen Uniblitz "Shutter" (Vincent Assoc.) eingestellt.
Bei Experimenten, bei denen die gesamte Lösung, in der die Zellen inkubiert wurden ausgewechselt wurde, wurde ein konischer Plexiglaseinsatz mit mehrfachen Einflußleitungen und einer Ausflußleitung in die Kulturschale eingesetzt, um das Volumen der Ableitkammer auf 1 ml zu reduzieren. Der Zufluß von Flüssigkeit war Schwerkraft-abhängig und wurde durch magnetische Ventile kontrolliert. Der Ausfluß wurde durch das Anlegen eines negativen Drucks mittels einer Vakuumpumpe bewirkt. Die Zugabe von Substanzen erfolgte unter visueller Beobachtung direkt auf die zu untersuchenden Keratinozyten mittels eines ferngesteuerten, magnetgesteuerten Y-Rohrsystem (Durchmesser des Ausflußröhrchens: 100 µm).
Die elektrophysiologischen Ableitungen mittels perforierten "Patches" wurden an HaCaT-Zellen durchgeführt, die zu einem konfluenten Monolayer gewachsen waren.

HaCaT-Zellen = assay: Anti-K10 immunostaining of HaCaT cells (differentiation); conditions: 1 mM 1-EBIO, 3 days, compared with control cells without 1-EBIO
Method: Dazu wurden proliferierende subkonfluente Zellen, Zellen, die gerade Konfluenz erreicht hatten, und ruhende Zellen (4 Tage nach Konfluenz) untersucht. Die Aktivität dieser Keratinozyten wurde anhand der differenzierungsspezifischen Keratin-10-Expression bestimmt. Dazu wurden die Zellen in eiskaltem PBS gewaschen und mit Aceton/Methanol (1:1) 20 min bei -20°C fixiert. Endogene Peroxidasen wurden mit 1 % H2O2 bei Raumtemperatur blockiert. Nachdem die unspezifischen Bindungsstellen mit 3% BSA in PBS abgesättigt worden waren, wurden die Zellen über Nacht in einer 1:500 Verdünnung des Maus-anti-K10 Antikörpers (DAKO) in 3% BSA in PBS bei 4°C inkubiert und anschließend drei Mal mit PBS und einmal mit 3% BSA in PBS gewaschen. Nach 2 h Inkubation mit einem Peroxidase-gekoppelten anti-Maus Antikörper bei Raumtemperatur wurden die Zellen dreimal mit PBS und einmal mit ddH2O gewaschen. Anschließend wurden die Zellen mit dem Peroxidase Substrat-Kit und 3-Amino-9-ethylcarbazol als chromogenes Substrat (Vector Laboratories) gefärbt. Während die proliferierenden Zellen und die Zellen, die gerade Konfluenz erreicht hatten, keine Färbung aufwiesen, zeigte es sich, daß ein Großteil der postkonfluenten Zellen gefärbt war (Figur 3). […]

HaCaT Zellen [2] = assay: Immunoblot of keratinocyte differentiation markers Involucrin, Keratin 1 and Keratin 10; conditions: 1, 100, 1000 µM; 4 days; control 1% DMSO
Excerpt: Dazu wurden in einer 6-"Well"- Platte 5x10^5 HaCaT Zellen pro "Well" in Medium angezogen. Am nächsten Tag wurde das Medium gewechselt auf Medium, das verschiedene Konzentrationen an 1-EBIO bzw. […] Als Lösungsmittelkontrolle wurde 1% DMSO (Spur "C") in Medium benutzt. Die Zellen wurden 4 Tage lang inkubiert, wobei das Medium täglich ersetzt wurde. Nach 4 Tagen wurden die Proteinkonzentration in den Zelllysaten bestimmt (BCA Assay, Pierce). Gleiche Proteinmengen aus den verschiedenen Lysaten wurden anschliessend mittels Immunoblot gegen die Keratinozytendifferenzierungsmarker Involucrin (1:500, Sigma) sowie Keratin 1 und 10 (1:250, Progen) verglichen (Figur 6).

HaCaT Zellen [3] = assay: BrDU incorporation cell proliferation ELISA (A[450 nm])
Excerpt: Dabei wurde zunächst der Einfluss verschiedener Konzentrationen von 1-EBIO auf die Wachstumsrate von HaCaT Zellen in An- und Abwesenheit von Serum gemessen. Zu diesem Zweck wurden 1x10^4 HaCaT Zellen pro "Well" in einer 96-"Well" Platte 5 Tage lang in Keratinozytenwachstumsmedium (KGM) kultiviert, um den Zellzyklus zu synchronisieren, gefolgt von einer zweitägigen Inkubation verschiedener Konzentrationen an 1-EBIO in KGM (siehe Figuren 7 und 8) in Abwesenheit (Figur 7) und in Anwesenheit (Figur 8) von Serum. […] Als Lösungmittelkontrolle diente 1% DMSO in KGM. Die Zellproliferation wurde mit Hilfe des Einbaus von […] (BrDU) während der Zellteilung gemäß den Angaben des Herstellers gemessen ("The Cell Proliferation ELISA, BrDU, Roche). Der Einbau von BrDU wurde dabei durch die Bestimmung der Absorption bei 450 nm quantifiziert. In Figur 7 und 8 ist jeweils die Absorption (A[450nm]) als Maß für die Proliferationsrate auf der Y-Achse aufgetragen. Eine höhere Absorption spiegelt eine stärkere Proliferation wieder.

HaCaT-Keratinozyten [4] = assay: Proliferation by daily count of cells per well; conditions: subconfluent cells, n=3
Method: Um den Effekt der Inhibitoren des hIK1 Kanals, Clotrimazol und Charybdotoxin, zu untersuchen, wurde zu subkonfluent gewachsenen Zellen entweder 10 µM Clotrimazol, 200 nM Charybdotoxin (ChTx) oder 1 mM 1-EBIO zugegeben und jeden Tag die Anzahl Zellen pro well bestimmt.
Wie aus Figur 5 (n=3) ersichtlich ist, inhibierte die Zugabe sowohl eines der beiden Inhibitoren als auch die Zugabe des Aktivators von hIK1 die Proliferation, während das Wachstum der Kontrollzellen, denen keine Modulatoren zugesetzt worden waren, unbeeinträchtigt blieb.

CCn1c(=O)[nH]c2ccccc21 [1-EBIO, 1-Ethyl-2-benzimidazolinon]
transiente Depolarisierung nach ATP (HaCaT-Keratinozyten [1]; ATP 10 µM in the presence of 1-EBIO 1 mM): viel stärker war als unter Kontrollbedingungen | Anteil an K10-gefärbten Zellen (Differenzierung) (HaCaT-Zellen): signifikant reduzierten Anteil an gefärbten Zellen | Differenzierung (Involucrin, K1, K10) (HaCaT Zellen [2]): dosisabhängig inhibieren | Dosisabhängigkeit der Inhibition der seruminduzierten Proliferation (HaCaT Zellen [3]; 1-EBIO, various concentrations, with serum): dosisabhängig ist und den stärksten Effekt bei einer Konzentration von 1 mM zeigt | Zellproliferation ohne Serum (HaCaT Zellen [3]; KGM without serum, 2 days, 1-EBIO various concentrations, Zoxazolamin 1 mM): alleine nicht in der Lage sind, die Zellproliferation zu stimulieren | Apoptose / Morphologie der Zellen (HaCaT Zellen [3]; cells treated with the activators): keine Anzeichen von Apoptose | seruminduzierte Proliferation (HaCaT Zellen [3]; with 10% FCS, 2 days, 1-EBIO various concentrations, Zoxazolamin 1 mM): in der Lage die seruminduzierte Proliferation zu inhibieren | Proliferation (Anzahl Zellen pro well) (HaCaT-Keratinozyten [4]; 1-EBIO 1 mM): inhibierten die Proliferation vollständig; also recorded: vollständigen Inhibition

Nc1ncnc2c1ncn2[C@@H]1O[C@H](COP(=O)(O)OP(=O)(O)OP(=O)(O)O)[C@@H](O)[C@H]1O [ATP]
Reversibilität der Hyperpolarisierung (HaCaT-Keratinozyten [1]; 1 µM ATP, n=9): durch Auswaschen der Lösung rasch reversiblen Prozeß | Änderung des Membranpotentials (HaCaT-Keratinozyten [1]; ATP 1-1000 µM perfusion, perforated patch, current clamp, confluent monolayer): biphasische Änderung des Membranpotentials, die aus einer kurzen, transienten Depolarisierung gefolgt von einer deutlichen und langanhaltenden Hyperpolarisierung bestand | Dauer der Hyperpolarisierung nach ATP-Zugabe (HaCaT-Keratinozyten [1]; ATP ≥ 10 µM, added for 5 min): ≥ 5 min

[Ba+2] [Ba^2+]
Depolarisierung auf ein Plateau während der Behandlung mit ATP (HaCaT-Keratinozyten [1]): Keiner der anderen getesteten K^+-Kanalblocker (TEA, Ba^2+, und Verapamil) führten zu einer vergleichbaren Depolarisierung auf ein Plateau

Clc1ccccc1C(c1ccccc1)(c1ccccc1)n1ccnc1 [Clotrimazol]
Einfluß auf die Repolarisierung unter ATP (HaCaT-Keratinozyten [1]): Derselbe Effekt | Proliferation (Anzahl Zellen pro well) (HaCaT-Keratinozyten [4]; Clotrimazol 10 µM): inhibierten die Proliferation vollständig; also recorded: vollständigen Inhibition

CCn1c(=O)[nH]c2cc(Cl)c(Cl)cc21 [DCEBIO, 5,6-dichloro-1-ethyl-1,3-dihydro-2H-benzimidazol-2-on]
Stärke der Depolarisation relativ zu 1-EBIO (HaCaT-Keratinozyten [1]; HaCaT Zellen, relative to 1-EBIO): 300-1000 fach

NCCc1c[nH]cn1 [Histamin]
elektrophysiologische Antwort im Vergleich zu ATP (HaCaT-Keratinozyten [1]; Histamin 100 µM, n=4): quantitativ und kinetisch praktisch identische Antwort

O=P(O)(O)O[C@@H]1[C@H](O)[C@H](O)[C@@H](OP(=O)(O)O)[C@H](OP(=O)(O)O)[C@H]1O [IP3]
Spannungsänderung nach Freisetzung von IP3 (HaCaT-Keratinozyten [1]; whole-cell, caged-IP3 10-100 µM, UV flash photolysis, n=7): schnellen, transienten Depolarisierung, gefolgt von einer Hyperpolarisierung

CCCCCCCCCCCCCC(=O)O[C@@H]1[C@@H](C)[C@@]2(O)[C@@H](C=C(CO)C[C@]3(O)C(=O)C(C)=C[C@@H]23)[C@@H]2C(C)(C)[C@]12OC(C)=O [PMA]
Membranpotential (langsame Depolarisierung auf) (HaCaT-Keratinozyten [1]): -32 ± 2 mV | Einfluß auf den Effekt von ATP (HaCaT-Keratinozyten [1]; PMA 60 ng/µl, n=4): beeinflußte jedoch nicht den Effekt von ATP

CC[N+](CC)(CC)CC [TEA]
Depolarisierung auf ein Plateau während der Behandlung mit ATP (HaCaT-Keratinozyten [1]): Keiner der anderen getesteten K^+-Kanalblocker (TEA, Ba^2+, und Verapamil) führten zu einer vergleichbaren Depolarisierung auf ein Plateau

Bradykinin (RPPGFSPFR; Bradykinin; UniProt P01042 381-389, looked up)
elektrophysiologische Antwort im Vergleich zu ATP (HaCaT-Keratinozyten [1]; Bradykinin 10 µM, n=3): quantitativ und kinetisch praktisch identische Antwort

Calphostin C
Einfluß auf die ATP-vermittelte Spannungsänderung (HaCaT-Keratinozyten [1]; Calphostin C 50 nM): beeinflußte jedoch ebenfalls nicht die ATP-vermittelte Spannungsänderung | Membranpotential (schwache Hyperpolarisierung auf) (HaCaT-Keratinozyten [1]; Calphostin C 50 nM): -58 ± 3 mV

Charybdotoxin
Einfluß auf die bestehende ATP-vermittelte Hyperpolarisierung (HaCaT-Keratinozyten [1]; ChTx 100 nM added after ATP, ATP still present, n=2): vollständige Umkehrung der Hyperpolarisierung | Einfluß auf die Repolarisierung unter ATP (HaCaT-Keratinozyten [1]; ChTx 100 nM before ATP, n=4): verhinderte ChTx die Repolarisierung vollständig | Einfluß auf die ATP-vermittelte Hyperpolarisierung (HaCaT-Keratinozyten [1]; ChTx 10-100 nM before ATP, n=15): verhinderte eine Hyperpolarisierung | Inhibition der ATP-vermittelten Hyperpolarisierung (HaCaT-Keratinozyten [1]; various concentrations, added before ATP): dosisabhängige Inhibition der ATP-vermittelten Hyperpolarisierung | Proliferation (Anzahl Zellen pro well) (HaCaT-Keratinozyten [4]; Charybdotoxin 200 nM): die Proliferation verlangsamte; also recorded: nur verlangsamtes Wachstum
